Laboratory results from patent US11603373B2, “TDO2 and IDO1 inhibitors” (Genentech, Inc., priority 2017, dated 2023).

Key:
[1] = target: T1, TDO2 (SW48 cells, high TDO expressing cells) (Homo sapiens, UniProt P48775); assay: NFK GreenScreen cell assay, inhibition of TDO in SW48 cells; format: cell-based; details: read-out: TDO2 Cell Fluor EC50
T1 construct: SW48 cells (high TDO expressing cells); endogenous in cells; host or cells: SW48 cells
Text: (§1) Cells are counted on a Vi-Cell (Beckman Coulter). […] The final DMSO concentration is 0.5%.

[2] = target: T2, IDO1 (A172+IFNg cells, high IDO expressing cells) (Homo sapiens, UniProt P14902); assay: NFK GreenScreen cell assay, inhibition of IDO in A172+IFNg cells; format: cell-based; details: read-out: IDO cell Fluor EC50
T2 construct: A172+IFNg cells (high IDO expressing cells); endogenous in cells; host or cells: A172 cells induced with 100 ng/ml IFNγ
T2 sequence (P14902 whole entry): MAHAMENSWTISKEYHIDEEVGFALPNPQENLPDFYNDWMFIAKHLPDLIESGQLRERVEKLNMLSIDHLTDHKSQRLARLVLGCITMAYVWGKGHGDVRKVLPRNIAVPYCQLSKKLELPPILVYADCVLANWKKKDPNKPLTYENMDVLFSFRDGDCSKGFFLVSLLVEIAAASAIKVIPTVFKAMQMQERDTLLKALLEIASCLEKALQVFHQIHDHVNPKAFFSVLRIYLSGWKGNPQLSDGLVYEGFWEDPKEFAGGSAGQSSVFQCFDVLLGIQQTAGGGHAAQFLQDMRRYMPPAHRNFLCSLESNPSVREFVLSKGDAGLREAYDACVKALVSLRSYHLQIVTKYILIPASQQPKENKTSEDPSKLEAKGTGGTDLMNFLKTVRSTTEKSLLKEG
Text: as §1

T1 sequence (P48775 whole entry): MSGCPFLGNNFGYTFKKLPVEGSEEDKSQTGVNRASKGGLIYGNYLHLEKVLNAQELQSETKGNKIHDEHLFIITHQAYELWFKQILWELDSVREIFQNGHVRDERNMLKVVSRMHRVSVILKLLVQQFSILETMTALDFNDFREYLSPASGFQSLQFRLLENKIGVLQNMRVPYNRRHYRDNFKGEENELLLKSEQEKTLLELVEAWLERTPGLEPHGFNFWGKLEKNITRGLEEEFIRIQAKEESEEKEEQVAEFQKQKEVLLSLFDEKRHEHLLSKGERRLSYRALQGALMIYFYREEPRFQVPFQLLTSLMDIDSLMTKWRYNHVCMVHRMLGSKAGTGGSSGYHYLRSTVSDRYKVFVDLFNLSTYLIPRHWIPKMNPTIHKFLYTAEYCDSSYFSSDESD

## O=C(C1CCS(=O)(=O)C1)N1CCC2(CC1)C[C@@H]([C@H]1c3ccccc3-c3cncn31)[C@H]2O (some centres unmarked) [compound 65, (1,1-dioxothiolan-3-yl)-[3-hydroxy-2-(5H-imidazo[1,5-b]isoindol-5-yl)-7-azaspiro[3.5]nonan-7-yl]methanone]
[1]
  EC50: 9 µM
[2]
  EC50: 6.3 µM

## NC(=O)N1CCC(C(=O)N2CCC3(CC2)CC(C2c4ccccc4-c4cncn42)C3O)CC1 (centres unmarked) [compound 66, 4-[3-hydroxy-2-(5H-imidazo[1,5-b]isoindol-5-yl)-7-azaspiro[3.5]nonane-7-carbonyl]piperidine-1-carboxamide]
[1]
  EC50: 14 µM
[2]
  EC50: 13 µM

## CC(=O)N1CCC(C(=O)N2CCC3(CC2)C[C@@H]([C@H]2c4ccccc4-c4cncn42)[C@H]3O)CC1 [compound 68, 1-[4-[3-hydroxy-2-(5H-imidazo[1,5-b]isoindol-5-yl)-7-azaspiro[3.5]nonane-7-carbonyl]-1-piperidyl]ethanone]
[1]
  EC50: 5.7 µM
[2]
  EC50: 3.4 µM

## O=C(C(F)F)N1CCC2(CC1)CC(C1c3ccccc3-c3cncn31)C2O (centres unmarked) [compound 69, 2,2-difluoro-1-[3-hydroxy-2-(5H-imidazo[1,5-b]isoindol-5-yl)-7-azaspiro[3.5]nonan-7-yl]ethanone]
[1]
  EC50: 0.37 µM
[2]
  EC50: 0.35 µM
